According to patent publication US9260429B2, “Pyrido[3,4-B]indoles and methods of use” (Medivation Technologies, Inc., priority 2008, dated 2016):
Like-named read-outs stand apart in the source and are kept apart here.

Columns and labels:
[1] = biological target: T1, human recombinant histamine H1 receptor (Homo sapiens, UniProt P35367); test: Histamine H1 radioligand binding ([3H]Pyrilamine)
T1 construct: expressed in transfected cells; host or cells: CHO cells
In short: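 Binding to the human recombinant histamine H1 receptor, expressed in CHO cells, was measured in a modified Tris-HCl buffer (50 mM Tris-HCl, pH 7.4, 2 mM MgCl2, 100 mM NaCl, 250 mM Sucrose). Compounds were incubated with 1.2 nM [3H]Pyrilamine for 180 minutes at 25° C, with 1 μM pyrilamine defining non-specific binding. After filtration and washing, filter counts gave percent inhibition of specific binding.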

[2] = biological target: T2, human recombinant serotonin (5-Hydroxytryptamine) 5-HT2A receptor (Homo sapiens, UniProt P28223); test: Serotonin 5-HT2A radioligand binding ([3H]Ketanserin)
T2 construct: expressed in transfected cells; host or cells: CHO-K1 cells
In short: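 Membranes from CHO-K1 cells expressing the receptor, in 50 mM Tris-HCl pH 7.4, incubated 60 min at 25° C with 0.5 nM [3H]Ketanserin; 1 μM Mianserin defines non-specific binding. Filtration and counting; values are % inhibition of specific binding at 1 μM or lower, 1% DMSO.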

[3] = biological target: T3, human recombinant dopamine D2L receptor (Homo sapiens, UniProt P14416); test: Dopamine D2L radioligand binding ([3H]Spiperone)
T3 construct: expressed in transfected cells; host or cells: CHO cells
In short: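 CHO-expressed receptor in 50 mM Tris-HCl pH 7.4 with ascorbic acid, 0.001% BSA, 150 mM NaCl; 0.16 nM [3H]spiperone, 120 min at 25 °C; nonspecific binding with haloperidol.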

[4] = biological target: T4, human recombinant adrenergic α1D receptor (Homo sapiens, UniProt P25100); test: Adrenergic α1D radioligand binding ([3H]Prozosin)
T4 construct: expressed in transfected cells; host or cells: HEK-293 cells
T4 sequence (P25100 1-572): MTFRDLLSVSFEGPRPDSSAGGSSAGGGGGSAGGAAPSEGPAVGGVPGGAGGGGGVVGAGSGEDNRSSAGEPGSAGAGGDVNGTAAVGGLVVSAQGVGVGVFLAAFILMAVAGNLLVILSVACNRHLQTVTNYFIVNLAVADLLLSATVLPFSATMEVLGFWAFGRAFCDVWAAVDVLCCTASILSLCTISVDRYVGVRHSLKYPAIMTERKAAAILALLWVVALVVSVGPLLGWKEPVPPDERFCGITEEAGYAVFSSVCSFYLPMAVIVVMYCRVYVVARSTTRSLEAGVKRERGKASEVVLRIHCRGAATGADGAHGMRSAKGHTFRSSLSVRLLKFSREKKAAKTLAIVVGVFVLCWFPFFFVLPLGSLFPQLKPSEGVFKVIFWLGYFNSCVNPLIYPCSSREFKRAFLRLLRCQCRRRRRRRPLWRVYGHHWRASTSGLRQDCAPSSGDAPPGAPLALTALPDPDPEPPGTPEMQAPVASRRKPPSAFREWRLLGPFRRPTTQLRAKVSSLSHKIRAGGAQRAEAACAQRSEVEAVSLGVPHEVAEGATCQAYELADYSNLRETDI
Procedure: To evaluate in radioligand binding assays the activity of compounds of the invention, human recombinant adrenergic a1D receptor expressed in human embryonic kidney (HEK-293) cells (Kenny, B. A. et al. Br. J. Pharmacol. 115(6):981, 1995) in a 50 mM Tris-HCl buffer, pH 7.4, was used. Compounds of invention were incubated with 0.6 nM [^3H]Prozosin for 60 minutes at 25° C. Non-specific binding was estimated in the presence of 10 μM phentolamine. Receptor proteins were filtered and washed, the filters were then counted to determine [^3H]Prozosin specifically bound. Compounds were screened at 1 μM or lower, using 1% DMSO as vehicle. Biochemical assay results are presented as the percent inhibition of specific binding in Table 4. Adrenergic a2A

[5] = biological target: T5, human recombinant serotonin (5-Hydroxytryptamine) 5-HT6 receptor (Homo sapiens, UniProt P50406); test: Serotonin 5-HT6 radioligand binding ([3H]LSD)
T5 construct: expressed in transfected cells; host or cells: human HeLa cells
In short: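 Human 5-HT6 receptor expressed in HeLa cells, in Tris-HCl pH 7.4 with 150 mM NaCl, ascorbic acid and BSA. Compounds at 1 μM or lower (1% DMSO) incubated 120 min at 37° C with 1.5 nM [3H]LSD. Non-specific binding defined with serotonin; filter counting gives % inhibition of specific binding.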

[6] = 1 μM, read-out: Binding data (Percentage Inhibition) Histamine Binding (1 μM) H1
[7] = 1 h, read-out: Percent Inhibition of ligand binding Serotonin (1 μM ligand concentration) 5-HT2A
[8] = 2 h, 1 μM ligand conc., read-out: Percent Inhibition of ligand binding Dopamine (1 μM ligand conc.) D2L
[9] = 1 h, read-out: Percent Inhibition of ligand binding Adrenergic (1 μM ligand conc.) α1D
[10] = 2 h, read-out: Percent Inhibition of ligand binding Serotonin (1 μM ligand concentration) 5-HT6

T3 sequence (P14416 whole entry): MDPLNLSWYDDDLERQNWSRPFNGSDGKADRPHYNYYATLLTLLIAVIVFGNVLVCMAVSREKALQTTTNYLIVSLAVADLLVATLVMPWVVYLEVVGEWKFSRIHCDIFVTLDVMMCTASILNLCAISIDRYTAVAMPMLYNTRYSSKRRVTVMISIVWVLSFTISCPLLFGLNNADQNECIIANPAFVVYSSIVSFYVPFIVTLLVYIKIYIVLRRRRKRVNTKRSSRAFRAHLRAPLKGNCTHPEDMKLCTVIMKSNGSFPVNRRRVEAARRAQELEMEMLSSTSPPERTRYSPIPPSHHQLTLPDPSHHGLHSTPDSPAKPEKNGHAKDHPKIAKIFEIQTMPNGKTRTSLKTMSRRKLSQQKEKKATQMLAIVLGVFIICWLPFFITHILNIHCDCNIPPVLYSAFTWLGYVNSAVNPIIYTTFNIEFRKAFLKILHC
T2 sequence (P28223 whole entry): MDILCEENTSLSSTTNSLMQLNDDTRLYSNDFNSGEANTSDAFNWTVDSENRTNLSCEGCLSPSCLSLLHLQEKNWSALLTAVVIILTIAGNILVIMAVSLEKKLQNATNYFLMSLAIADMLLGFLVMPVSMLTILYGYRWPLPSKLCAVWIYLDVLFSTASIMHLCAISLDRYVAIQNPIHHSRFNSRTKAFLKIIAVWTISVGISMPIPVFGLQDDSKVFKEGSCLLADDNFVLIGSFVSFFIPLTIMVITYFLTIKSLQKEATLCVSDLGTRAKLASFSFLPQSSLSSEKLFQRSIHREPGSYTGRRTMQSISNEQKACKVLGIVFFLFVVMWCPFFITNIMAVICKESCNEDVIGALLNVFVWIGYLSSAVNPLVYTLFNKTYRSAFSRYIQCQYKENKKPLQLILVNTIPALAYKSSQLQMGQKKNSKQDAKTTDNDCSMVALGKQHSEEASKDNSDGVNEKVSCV
T5 sequence (P50406 whole entry): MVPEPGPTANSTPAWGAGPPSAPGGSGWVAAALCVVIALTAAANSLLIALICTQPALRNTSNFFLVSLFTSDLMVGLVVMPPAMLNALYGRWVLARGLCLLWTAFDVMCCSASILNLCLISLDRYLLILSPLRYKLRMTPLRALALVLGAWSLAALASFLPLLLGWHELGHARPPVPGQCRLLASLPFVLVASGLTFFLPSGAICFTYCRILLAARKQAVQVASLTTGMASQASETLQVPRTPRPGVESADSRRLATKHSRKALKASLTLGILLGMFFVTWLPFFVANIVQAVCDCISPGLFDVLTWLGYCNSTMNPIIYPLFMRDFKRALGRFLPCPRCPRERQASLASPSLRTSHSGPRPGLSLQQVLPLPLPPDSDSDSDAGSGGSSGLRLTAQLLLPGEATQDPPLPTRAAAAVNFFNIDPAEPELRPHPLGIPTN
T1 sequence (P35367 whole entry): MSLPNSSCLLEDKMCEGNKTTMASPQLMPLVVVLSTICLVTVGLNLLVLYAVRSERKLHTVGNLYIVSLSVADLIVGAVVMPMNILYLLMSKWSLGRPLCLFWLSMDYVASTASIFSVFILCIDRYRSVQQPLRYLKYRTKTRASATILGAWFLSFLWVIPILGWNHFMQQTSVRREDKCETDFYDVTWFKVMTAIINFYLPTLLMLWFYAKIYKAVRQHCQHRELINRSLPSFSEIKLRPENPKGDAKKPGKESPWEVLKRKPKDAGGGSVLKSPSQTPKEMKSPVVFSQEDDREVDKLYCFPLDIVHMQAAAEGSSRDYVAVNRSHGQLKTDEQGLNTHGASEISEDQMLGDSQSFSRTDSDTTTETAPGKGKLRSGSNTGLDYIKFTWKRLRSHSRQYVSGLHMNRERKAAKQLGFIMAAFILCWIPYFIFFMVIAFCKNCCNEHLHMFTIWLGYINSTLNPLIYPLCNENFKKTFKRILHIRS

| SMILES | inhibition at 1 µM [1, 6] [%] | inhibition at 1 µM [2, 7] [%] | inhibition at 1 µM [3, 8] [%] | inhibition at 1 µM [4, 9] [%] | inhibition at 1 µM [5, 10] [%] | other results |
| --- | --- | --- | --- | --- | --- | --- |
| Cc1ccc2c(c1)c1c(n2/C=C/c2ccccc2)CN(C)CC1 [Compound 92] | 99 | 97 | 47 | 97 | 96 | inhibition at 0.03 µM ([1]; compound concentration 0.03 μM, read-out: Percentage inhibition of ligand binding to H1 receptor): 67%; inhibition at 0.1 µM ([1]; compound concentration 0.1 μM, read-out: Percentage inhibition of ligand binding to H1 receptor): 91%; inhibition at 0.3 µM ([1]; compound concentration 0.3 μM, read-out: Percentage inhibition of ligand binding to H1 receptor): 96%; inhibition at 1 µM ([1]; compound concentration 1 μM, read-out: Percentage inhibition of ligand binding to H1 receptor): 99%; inhibition at 0.01 µM ([2]; compound concentration 10 nM, read-out: Percentage inhibition of ligand binding to 5-HT2A receptor): 13%; inhibition at 0.03 µM ([2]; compound concentration 0.03 μM, read-out: Percentage inhibition of ligand binding to 5-HT2A receptor): 37%; inhibition at 0.1 µM ([2]; compound concentration 0.1 μM, read-out: Percentage inhibition of ligand binding to 5-HT2A receptor): 65%; inhibition at 0.3 µM ([2]; compound concentration 0.3 μM, read-out: Percentage inhibition of ligand binding to 5-HT2A receptor): 83%; inhibition at 1 µM ([2]; compound concentration 1 μM, read-out: Percentage inhibition of ligand binding to 5-HT2A receptor): 97%; inhibition at 1 µM ([3]; compound concentration 1 μM, read-out: Percentage inhibition of ligand binding to D2L receptor): 47%; inhibition at 3 µM ([3]; compound concentration 3 μM, read-out: Percentage inhibition of ligand binding to D2L receptor): 72%; inhibition at 1 µM ([4]; compound concentration 1 μM, read-out: Percentage inhibition of ligand binding to Adrenergic α1D receptor): 97%; inhibition at 0.01 µM ([5]; compound concentration 10 nM, read-out: Percentage inhibition of ligand binding to 5-HT6 receptor): 14%; inhibition at 0.03 µM ([5]; compound concentration 0.03 μM, read-out: Percentage inhibition of ligand binding to 5-HT6 receptor): 28%; inhibition at 0.1 µM ([5]; compound concentration 0.1 μM, read-out: Percentage inhibition of ligand binding to 5-HT6 receptor): 60%; inhibition at 0.3 µM ([5]; compound concentration 0.3 μM, read-out: Percentage inhibition of ligand binding to 5-HT6 receptor): 81%; inhibition at 1 µM ([5]; compound concentration 1 μM, read-out: Percentage inhibition of ligand binding to 5-HT6 receptor): 96% |
| C/C(=C\n1c2c(c3cc(Cl)ccc31)CCN(C)C2C)c1ccc(Cl)cc1 (stereo not drawn) [Compound 99, 6-chloro-9-(2-(4-chlorophenyl)prop-1-enyl)-1,2-dimethyl-2,3,4,9-tetrahydro-1H-pyrido[3,4-b]indole] | 65 | 86 | -7 | 20 | 69 |  |
| CCC1c2c(c3cc(Cl)ccc3n2/C=C(\C)c2ccc(Cl)cc2)CCN1C (stereo not drawn) [Compound 100, 6-chloro-9-(2-(4-chlorophenyl)prop-1-enyl)-1-ethyl-2-methyl-2,3,4,9-tetrahydro-1H-pyrido[3,4-b]indole] | 33 | 87 | -11 | 8 | 23 |  |
| Cc1ccc2c(c1)c1c(n2CC(=O)O)CN(C)CC1 [Compound 53, 2-(1,2,3,4-tetrahydro-2,6-dimethylpyrido[3,4-b]indol-9-yl)acetic acid] | 5 | -6 | 6 | 6 | -8 |  |
| CC1c2c(c3cc(Cl)ccc3n2C#Cc2ccc(Cl)cc2)CCN1C (stereo not drawn) [Compound 132, 6-chloro-9-((4-chlorophenyl)ethynyl)-1,2-dimethyl-2,3,4,9-tetrahydro-1H-pyrido[3,4-b]indole] | 14 | 80 | -6 | -8 | 17 |  |
| Cc1ccc2c(c1)c1c(n2CCC(=O)N2CCCCC2)CN(C)CC1 [Compound 43, 3-(1,2,3,4-tetrahydro-2,6-dimethylpyrido[3,4-b]indol-9-yl)-1-(piperidin-1-yl)propan-1-one] | 30 | 69 | -8 | 58 | 3 |  |
| CCC1c2c(c3cc(Cl)ccc3n2C#Cc2ccc(F)cc2)CCN1C (stereo not drawn) [Compound 129] | 8 | 85 | -8 | 10 | 22 |  |
| COC(=O)Cn1c2c(c3cc(C)ccc31)CCN(C)C2 [Compound 21, methyl 2-(1,2,3,4-tetrahydro-2,6-dimethylpyrido[3,4-b]indol-9-yl)acetate] | 3 | 4 | -1 | -7 | 6 |  |
| CCC1c2c(c3cc(Cl)ccc3n2CCc2ccc(F)cc2)CCN1C (stereo not drawn) [Compound 78] | 71 | 80 | 11 | 42 | 48 |  |
| CN1CCc2c(n(CC(=O)N3CCNCC3)c3ccc(Cl)cc23)C1 [Compound 55, 2-(6-chloro-2-methyl-3,4-dihydro-1H-pyrido[3,4-b]indol-9(2H)-yl)-1-(piperazin-1-yl)ethanone] | 90 | 17 | -6 | 10 | 0 |  |
| Cc1ccc(C(O)Cn2c3c(c4cc(C)ccc42)CCN(C)C3)cc1 (stereo not drawn) [Compound 72] | 55 | 96 | 24 | 86 | 61 |  |
